# Assay results as given in article PMC5762338, “A novel orally available Syk/Src/Jak2 inhibitor, SKLB-850, showed potent anti-tumor activities in B cell lymphoma (BCL) models” (Oncotarget, 2017).
# Columns and labels:
# A549 = assay: MTT anti-viability assay; assay type: cell-based; settings: A549, Human non-small cell lung cancer cells, 72 hours
# Description: (§1) In vitro anti-viability activities of SKLB-850 against various tumor cell lines were measured using the MTT method.
# (§2) Human cancer cell lines Ramos-ZHL, HBL-1, SuDHL-6, LY-10, LY-1, RAJI, MDA-MB-231, SW1990, SMMC7721, MCF-7, CFPAC-1, HPAC, A549 and H358 were obtained from American Type Culture Collection (ATCC). All tumor cell lines were maintained according to the ATCC procedures and passaged for less than 6 months after receipt for resuscitation. These cells were cultured in RPMI-1640 supplemented with 10% fetal bovine serum (FBS).
# (§3) Cell proliferation was measured using the MTT assay as previously described. Various cells including were treated with indicated concentrations of SKLB-850 for 72 hours. R788 (Selleck.cn) was served as a positive control. Each assay was replicated 3 times.
# CFPAC-1 = assay: MTT anti-viability assay; assay type: cell-based; settings: CFPAC-1, Human pancreatic cancer cell, 72 hours
# Description: as §1, §2, §3
# H358 = assay: MTT anti-viability assay; assay type: cell-based; settings: 72 hours
# Description: as §1, §2, §3
# HBL-1 = assay: MTT anti-viability assay; assay type: cell-based; settings: HBL1, HBL-1, Human diffuse large B cell lymphoma, 72 hours
# Description: as §1, §2, §3
# HPAC = assay: MTT anti-viability assay; assay type: cell-based; settings: Human pancreatic cancer cell, 72 hours
# Description: as §1, §2, §3
# LY-10 = assay: MTT anti-viability assay; assay type: cell-based; settings: LY10, LY-10, Human diffuse large B cell lymphoma, 72 hours
# Description: as §1, §2, §3
# LY-1 = assay: MTT anti-viability assay; assay type: cell-based; settings: Ly1, LY-1, Human diffuse large B cell lymphoma, 72 hours
# Description: as §1, §2, §3
# MCF-7 = assay: MTT anti-viability assay; assay type: cell-based; settings: MCF7, MCF-7, Human breast cancer cell, 72 hours
# Description: as §1, §2, §3
# MDA-MB-231 = assay: MTT anti-viability assay; assay type: cell-based; settings: MDA-MB-231, Human breast cancer cell, 72 hours
# Description: as §1, §2, §3
# RAJI = assay: MTT anti-viability assay; assay type: cell-based; settings: Human B cell lymphoma, 72 hours
# Description: as §1, §2, §3
# Ramos-ZHL = assay: MTT anti-viability assay; assay type: cell-based; settings: Human B cell lymphoma, 72 hours
# Description: as §1, §2, §3
# SMMC7721 = assay: MTT anti-viability assay; assay type: cell-based; settings: SMMC-7721, SMMC7721, Human hepatocellular carcinoma cell, 72 hours
# Description: as §1, §2, §3
# SW1990 = assay: MTT anti-viability assay; assay type: cell-based; settings: SW1990, Human pancreatic cancer cell, 72 hours
# Description: as §1, §2, §3
# SuDHL-6 = assay: MTT anti-viability assay; assay type: cell-based; settings: SU-DHL-6, SuDHL-6, Human follicular B cell lymphoma, 72 hours
# Description: as §1, §2, §3
# [1] = tested on: CCL3 secretion of Ramos cells; assay: ELISA of chemokine secretion after anti-IgM and anti-CD40 stimulation; assay type: cell-based, Human; settings: anti-IgM and anti-CD40 induced, 0.1μM, 18 hours, n=3, stimulated without compound 3443.00 ± 134.80 pg/mL
# Description: (§4) We then measured the concentrations of CCL3 and CCL4 in supernatant of Ramos cells cultured in medium, or medium supplemented with anti-IgM and anti-CD40 in the presence or absence of SKLB-850 after 18 hours. CCL3 and CCL4 are chemokines, which appear to correlate with the signaling capacity of the BCR [26]. As shown in Figure 3A and 3B, SKLB-850 inhibited the increased secretion of CCL3 and CCL4 stimulated by anti-IgM and anti-CD40. The mean CCL3 and CCL4 concentrations in supernatants of Ramos cells after anti-IgM and CD40 stimulation were 3443.00 ± 134.80 pg/mL and 134.80 ± 1.90 pg/mL, respectively.
# (§5) To evaluate the effect of SKLB-850 on CCL3 and CCL4 secretion after stimulation of Ramos cells with anti-IgM (30 μg/ml) and anti-CD40 (10 μg/ml), chemokine levels were measured in supernatants of activated BCL cells, as previously described. After 18 hours of anti-IgM and anti-CD40 co-culture, supernatants were harvested and assayed for CCL3 and CCL4 by quantitative enzyme-linked immunosorbent assays according to the manufacturer’s instructions (Quantikine, R&D Systems, Minneapolis, MN, USA).
# [2] = tested on: CCL4 secretion of Ramos cells; assay: as above; assay type: cell-based, Human; settings: anti-IgM and anti-CD40 induced, 0.1μM, 18 hours, n=3, stimulated without compound 134.80 ± 1.90 pg/mL
# Description: as §4, §5
# Ramos cells = assay: Chemotaxis assay toward CXCL12 (transwell); assay type: cell-based, Human; settings: CXCL12 200ng/mL, 12 hours
# Description: (§6) And BCL cells could migrate toward the chemokine CXCL12 upon activation of its receptor CD184 [27].
# Chemotaxis assay was performed as previously described. Briefly, 1×10^6 Ramos cells were cultured in RPMI 1640 containing 0.5% bovine serum albumin and were pre-incubated for 30 minutes with SKLB-850, R788 or DMSO, and then they were added to the inserts of transwell chambers (5μm poresize; Corning). Inserts were then transferred into wells containing CXCL12 (200ng/mL). After 12 hours, cell count was determined for the upper and lower well in duplicates using a flow cytometer (Novocyte Technologies, China). Chemotaxis indices were calculated as: [number of cells in the lower chamber×100] / [number of cells in the lower and upper chambers]. The chemotaxis index with SKLB-850 was calculated as percentage of the DMSO index.
# [3] = tested on: CD184 expression of Ramos cells; assay: CD184 (CXCR4) surface expression by flow cytometry; assay type: cell-based, Human
# Description: as §6
# The expression of surface molecules was analyzed by flow cytometry, using the following monoclonal antibody CD184 (CXCR4), and the relevant isotype controls mAbs (BD biosciences). A total of 10^6 mononuclear cells were incubated for 30 minutes at 4°C with saturating concentrations of mAbs, and the cells were washed twice and analyzed with a flow cytometer (BD FACSCalibur, BD, USA).
smiles,measurement,setting,value
"CN1CCN(c2ccc(Nc3ncc(F)c(Nc4ccc(Cl)cc4C(N)=O)n3)cc2)CC1 [SKLB-850, 5-chloro-2-((5-fluoro-2-((4-(4-methylpiperazin-1-yl)phenyl)amino)pyrimidin-4-yl)amino) benzamide]",IC50,A549,> 20 µM
same,IC50 anti-viability,A549,did not exhibit activity
same,IC50,CFPAC-1,7.24 µM
same,IC50 anti-viability,"H358; H358, Human non-small cell lung cancer cells",did not exhibit activity
same,IC50,"H358; NCI-H358, H358, Human non-small cell lung cancer cells",> 20 µM
same,IC50,HBL-1,0.69 µM
same,IC50,HPAC,> 20 µM
same,IC50 anti-viability,HPAC,did not exhibit activity
same,IC50,LY-10,0.9 µM
same,IC50,LY-1,1.6 µM
same,IC50,MCF-7,7.23 µM
same,IC50,MDA-MB-231,2.19 µM
same,IC50,RAJI,1.95 µM
same,IC50,Ramos-ZHL,0.03 µM
same,IC50,SMMC7721,2.2 µM
same,IC50,SW1990,2.19 µM
same,IC50,SuDHL-6,0.9 µM
same,CCL3 level in supernatant,[1],2303.10 ± 109.40 pg/mL
same,CCL4 level in supernatant,[2],15.20 ± 0.30 pg/mL
same,Ramos cell chemotaxis toward CXCL12 (in words),Ramos cells,reduced the percentage of Ramos cell chemotaxis toward CXCL12
same,expression of CD184 (in words),[3],decreased the expression of CD184
